Measured values reported in US20250270173A1, “PYRIDINE DERIVATIVES FOR TREATING PSYCHIATRIC DISORDERS” (GILGAMESH PHARMACEUTICALS, INC., priority 2022, published 2025).
Where two headings read alike, the source gives them in different places.

How the values were obtained:
[1] = biological target: T1, 5-HT2A receptor (Homo sapiens (Human), UniProt P28223); test: FLIPR Ca2+ flux functional assay at 5-HT2A (HEK293); conditions: for 5-HT2A % Act @ Max Conc.: HEK293, at max concentration
[2] = biological target: 5-HT2B receptor (Homo sapiens (Human), UniProt P41595); test: FLIPR Ca2+ flux functional assay at 5-HT2B (HEK293); conditions: for 5-HT2B % Act @ Max Conc.: HEK293, at max concentration
[3] = biological target: 5-HT1A receptor (Homo sapiens (Human), UniProt P08908); test: FLIPR Ca2+ flux functional assay at 5-HT1A (CHO cells); conditions: for 5-HT1A % Act @ Max Conc.: at max concentration
[4] = biological target: T1, 5-HT2A receptor; test: 5-HT2A receptor radioligand binding with [3H]ketanserin
[5] = biological target: human 5-HT2C receptor (Homo sapiens (Human), UniProt P28335); test: FLIPR Ca2+ flux functional assay at 5-HT2C (Eurofins DiscoverX); format: cell-based; conditions: for 5-HT2C % Act @ Max Conc.: Ca2+ flux, human 5-HT2C, at max concentration
Method: Functional Assays at 5-HT2C Receptors. […] Probenecid was prepared fresh. Cells were loaded with dye prior to testing and incubated at 37° C. for 30-60 minutes. After dye loading, cells were removed from the incubator and 10 μL HBSS/20 mM Hepes was added. 3× vehicle was included in the assay buffer. Cells were incubated for 30 mins at room temperature in the dark to equilibrate plate temperature. Intermediate dilution of sample stocks was performed to generate 4× sample in assay buffer. Compound agonist activity was measured on a FLIPR Tetra (MDS). Calcium mobilization was monitored for 2 minutes and 10 μL 4× sample in HBSS/20 mM Hepes was added to the cells 5 seconds into the assay.

[6] = test system: C57BL/6 mice; test: Automated (video tracking) head twitch response (HTR) assay in mice; format: in vivo; conditions: SC; for ED50: Mus musculus, 20 min, 20 min recording, read-out: ED50; for Most Efficacious Dose; mg/kg: dose giving the most HTR
Method: Disclosed compounds were tested for their ability to induce a head twitch response (HTR) in mice using an automated video tracking procedure, with the results summarized in Table 5. […] The phenyl Compound 44 was substantially more efficacious at inducing HTR than its pyridine counterpart Compound 29, in agreement with the generally lower maximal efficacy of the disclosed pyridine compounds for signaling through 5-HT2A receptors.
Animals. Adult male C57BL/6 mice aged 8-10 weeks (body weight 20-25 g) were used in these experiments. Animals were housed under controlled temperatures and 12-hour light/dark cycles (lights on between 07:00-19:00 h), with ad libitum food and water. The protocol was approved by the Institutional Animal Care and Use Committee at the study site. This study was carried out in strict accordance with the recommendations in the Guide for the Care and Use of Laboratory Animals of the National Institutes of Health. All efforts were made to minimize suffering.
Drugs and Drug Administration. […] was commercially obtained. Disclosed compounds were synthesized as described above. They were administered subcutaneously (SC) dissolved in saline (or saline acidified with 1-2 molar equivalents HCl to form the salt in situ for freebase compounds) at a volume of 10 mL/kg. Five doses were tested, with N=5-8 animals/group. Doses were calculated on the basis of the freebase, except for DOI, which was calculated based on the HCl salt.
Procedure. Mice were administered one dose of the drug and immediately placed into a small open field for behavioral observation. High-speed video of animals' behavior was captured continuously for 20 min. Video recordings were imported into an image processing software, which detects multiple points of interest on each animal's body, including the left and right ear. HTR events were defined as periodic deviations of ear locations from temporally averaged ear locations. Predefined thresholds for magnitude and frequency of location deviations were used to filter […] events from random head movements. The method was validated by comparing detected events with manual (human) observations and found to have an accuracy >95%. The total number of HTR events counted during the 20-min recording were determined for each animal at each dose.
Statistical Analysis. Analysis was performed using GraphPad Prism 9. Dose-response curves were fit via non-linear regression using the Gaussian 2020 function in Prism in order to determine the ED50 and Emax for each compound.

[7] = read-out: 5-HT2A EC50, Ca2+ flux, HEK293
[8] = read-out: 5-HT2B EC50, Ca2+ flux, HEK293
[9] = read-out: Ki at 5-HT2A Receptor (nM) ([3H]ketanserin), HEK293 stable cell line, 1 nM [3H]ketanserin, 1 h, 25 °C

5-HT2B receptor, sequence (P41595 whole entry, looked up): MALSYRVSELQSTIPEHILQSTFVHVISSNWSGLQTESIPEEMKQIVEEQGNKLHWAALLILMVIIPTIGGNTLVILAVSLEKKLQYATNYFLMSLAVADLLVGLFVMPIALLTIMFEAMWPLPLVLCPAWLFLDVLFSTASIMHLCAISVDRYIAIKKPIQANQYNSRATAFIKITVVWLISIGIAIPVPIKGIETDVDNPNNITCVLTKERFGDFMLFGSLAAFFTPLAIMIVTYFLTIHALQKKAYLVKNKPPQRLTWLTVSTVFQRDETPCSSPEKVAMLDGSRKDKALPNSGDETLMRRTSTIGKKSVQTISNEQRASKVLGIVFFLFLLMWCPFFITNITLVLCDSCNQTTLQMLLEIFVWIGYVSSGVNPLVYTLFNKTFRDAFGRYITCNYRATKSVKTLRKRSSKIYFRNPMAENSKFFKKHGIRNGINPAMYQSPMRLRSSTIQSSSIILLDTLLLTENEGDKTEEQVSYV
human 5-HT2C receptor, sequence (P28335 whole entry, looked up): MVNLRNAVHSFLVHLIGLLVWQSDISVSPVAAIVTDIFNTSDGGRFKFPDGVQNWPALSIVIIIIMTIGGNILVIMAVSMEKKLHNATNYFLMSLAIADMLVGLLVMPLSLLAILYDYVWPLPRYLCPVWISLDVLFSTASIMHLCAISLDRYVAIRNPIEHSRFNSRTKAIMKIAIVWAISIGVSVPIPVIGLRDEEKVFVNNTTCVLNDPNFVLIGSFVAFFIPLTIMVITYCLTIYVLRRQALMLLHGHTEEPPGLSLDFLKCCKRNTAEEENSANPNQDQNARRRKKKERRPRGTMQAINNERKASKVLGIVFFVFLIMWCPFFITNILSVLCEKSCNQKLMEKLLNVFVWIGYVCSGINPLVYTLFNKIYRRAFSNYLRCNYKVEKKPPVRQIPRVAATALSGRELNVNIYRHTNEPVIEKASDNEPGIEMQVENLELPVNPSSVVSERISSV

Row | SMILES | EC50 [1] | 5-HT2A % Act @ Max Conc. ([1]; Ca2+ flux) | EC50 [2] | 5-HT2B % Act @ Max Conc. ([2]; Ca2+ flux) | EC50 [3] | 5-HT1A % Act @ Max Conc. ([3]; Ca2+ flux, CHO cells) | Ki [4] | EC50 [1, 7] | EC50 [2, 8] | Ki [4, 9] | EC50 ([3]; read-out: 5-HT1A EC50, Ca2+ flux, CHO cells) | EC50 [5] | 5-HT2C % Act @ Max Conc. [5] | ED50 [6] | Emax (HTR counts/20 min) [6] | # HTR/20 min at Most Efficacious Dose [6] | Most Efficacious Dose; mg/kg [6]
1 | COc1cc(CCCCC(F)(F)F)c(OC)nc1CCN [Compound 35, 2-(3,6-dimethoxy-5-(5,5,5-trifluoropentyl)pyridin-2-yl)ethan-1-amine] | 38.5 nM | 48.95% | 341 nM | 32.44% | > 100000 nM | 41.47% | 13.6 nM |  |  |  |  |  |  |  |  |  | 
2 | CCc1cc(OC)c(CCN)cc1OC [Compound 2C-E, 2C-E, reference compound] |  | 105% |  | 66.2% |  | 17.9% |  | 0.747 nM | 29.7 nM | 16.7 nM |  |  |  |  |  |  | 
3 | CCCCCc1cc(OC)c(CC(C)N)nc1OC (centres unmarked) [Compound 4, 1-(3,6-dimethoxy-5-pentylpyridin-2-yl)propan-2-amine] | 15.4 nM | 132.71% | > 10000 nM | 14.53% | 48100 nM | 67.31% |  |  |  | 26.2 nM |  |  |  |  |  |  | 
4 | COc1cc(CCCCCF)c(OC)nc1CCN [Compound 34, 2-(5-(5-fluoropentyl)-3,6-dimethoxypyridin-2-yl)ethan-1-amine] | 13.5 nM | 64.66% | > 10000 nM | 7.93% | > 100000 nM | 4.8% |  |  |  | 10.2 nM |  |  |  |  |  |  | 
5 | COc1cc(CCN)c(OC)cc1Br [Compound 2C-B, 2C-B, reference compound] |  | 99.7% |  | 73.3% |  | 47.8% |  | 0.478 nM | 20 nM | 8.25 nM | 33100 nM |  |  |  |  |  | 
6 | COc1cc(CCCC(F)(F)F)c(OC)nc1CCN [Compound 33, 2-(3,6-dimethoxy-5-(4,4,4-trifluorobutyl)pyridin-2-yl)ethan-1-amine] | 45.7 nM | 68.5% | > 10000 nM | 1.05% | > 100000 nM | 10.46% |  |  |  | 104 nM |  |  |  |  |  |  | 
7 | COc1cc(Br)c(OC)nc1CCN [Compound 9, 2-(5-bromo-3,6-dimethoxypyridin-2-yl)ethan-1-amine] | 9.81 nM | 96.84% | 764 nM | 38.01% | > 100000 nM | 2.11% |  |  |  |  |  | 30.7 nM | 95.94% | 1.38 mg/kg | 49.65 HTR counts/20 min | 45.75 HTR/20 min | (3.2) mg/kg
8 | COc1cc(Cl)c(OC)nc1CCN [Compound 16, 2-(5-chloro-3,6-dimethoxypyridin-2-yl)ethan-1-amine] | 20.1 nM | 97.33% | 1400 nM | 38.95% | > 100000 nM | 5.31% |  |  |  | 264 nM |  |  |  |  |  |  | 
9 | CCc1cc(OC)c(CCN)nc1OC [Compound 19, 2-(5-ethyl-3,6-dimethoxypyridin-2-yl)ethan-1-amine] | 20.3 nM | 96.03% | 218 nM | 20.07% | 12000 nM | 1.25% |  |  |  | 111 nM |  |  |  |  |  |  | 
10 | CCc1cc(OC)c(CC(C)N)nc1OC (centres unmarked) [Compound 20, 1-(5-ethyl-3,6-dimethoxypyridin-2-yl)propan-2-amine] | 5.79 nM | 98.11% | 293 nM | 75.75% | > 100000 nM | 0.9% |  |  |  | 322 nM |  |  |  |  |  |  | 
11 | CCCCCCc1cc(OC)c(CCN)cc1OC [Compound 44, reference compound] |  | 90.51% |  | 46.79% |  | 183.21% |  |  |  |  |  |  | 82.62% | 1.36 mg/kg | 57.87 HTR counts/20 min | 58.0 HTR/20 min | (3.2) mg/kg
12 | COc1cc(C2CC2)c(OC)nc1CC(C)N (centres unmarked) [Compound 27, 1-(5-cyclopropyl-3,6-dimethoxypyridin-2-yl)propan-2-amine] | 15 nM | 104.13% | 246 nM | 61.18% | > 100000 nM | 0.49% |  |  |  | 304 nM |  |  |  |  |  |  | 
13 | CCC(N)Cc1cc(OC)c(C)cc1OC (centres unmarked) [Compound 39, reference compound] |  | 112.8% |  | 39.2% |  | 8.7% |  |  |  |  |  |  | 99.3% |  |  |  | 
14 | COc1cc(Cl)c(OC)nc1CC(C)N (centres unmarked) [Compound 17, 1-(5-chloro-3,6-dimethoxypyridin-2-yl)propan-2-amine] | 6.27 nM | 99.4% | 540 nM | 70.03% | > 100000 nM | 0.79% |  |  |  | 404 nM |  |  |  |  |  |  | 
15 | COc1ccccc1CNCCc1nc(OC)c(Br)cc1OC [Compound 25, 2-(5-bromo-3,6-dimethoxypyridin-2-yl)-N-(2-methoxybenzyl)ethan-1-amine] | 1.59 nM | 93.57% | > 10000 nM | 8.22% | > 100000 nM | 21.35% |  |  |  | 0.35 nM |  |  |  |  |  |  | 
